Like-named read-outs stand apart in the source and are kept apart here.
Columns and labels:
[1] = molecular target: T1, norepinephrine (NE) transporter (Rattus norvegicus, UniProt Q63380); experiment: displacement of [3H]nisoxetine binding to NE transporter; settings: rat brain membranes
T1 construct: rat brain membranes; from tissue

[2] = molecular target: T2, dopamine (DA) transporter (Rattus norvegicus, UniProt P23977); experiment: displacement of [125I]RTI-55 binding to dopamine transporter; settings: [125I]RTI-55, rat striatal membranes
T2 construct: was used to label dopamine transporters in rat striatal membranes; from tissue; host or cells: rat striatum (membranes)

[3] = molecular target: T3, serotonin (5-HT) transporter (Rattus norvegicus, UniProt P31652); experiment: displacement of [3H]paroxetine binding to 5-HT transporter; settings: for 5-HT/DA potency ratio: selectivity for 5-HT over DA transporter; for 5-HT/NE potency ratio: selectivity for 5-HT over NE transporter
T3 construct: from tissue; host or cells: rat frontal cortex

[4] = molecular target: T3, serotonin (5-HT) transporter; settings: earlier tropanes (U.S. Ser. No. 08/589,820), 5-HT vs dopamine transporter; cited from earlier work
[5] = [3H]paroxetine, rat frontal cortex

T1 sequence (Q63380 1-617): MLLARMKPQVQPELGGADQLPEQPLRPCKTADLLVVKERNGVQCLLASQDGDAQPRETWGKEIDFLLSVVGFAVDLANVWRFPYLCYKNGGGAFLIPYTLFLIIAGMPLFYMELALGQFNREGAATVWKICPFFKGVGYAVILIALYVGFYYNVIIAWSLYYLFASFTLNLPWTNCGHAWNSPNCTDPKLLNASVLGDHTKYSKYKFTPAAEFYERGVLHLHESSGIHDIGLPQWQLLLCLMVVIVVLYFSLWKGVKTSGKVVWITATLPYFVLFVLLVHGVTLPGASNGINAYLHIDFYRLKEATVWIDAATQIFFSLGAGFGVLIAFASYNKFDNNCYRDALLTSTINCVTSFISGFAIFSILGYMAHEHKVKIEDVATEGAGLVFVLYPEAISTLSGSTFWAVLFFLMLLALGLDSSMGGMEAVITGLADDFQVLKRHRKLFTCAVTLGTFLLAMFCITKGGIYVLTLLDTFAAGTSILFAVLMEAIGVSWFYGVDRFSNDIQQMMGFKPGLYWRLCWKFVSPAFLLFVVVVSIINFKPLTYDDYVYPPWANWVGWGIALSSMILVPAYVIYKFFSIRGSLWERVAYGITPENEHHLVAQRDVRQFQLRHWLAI
T2 sequence (P23977 whole entry): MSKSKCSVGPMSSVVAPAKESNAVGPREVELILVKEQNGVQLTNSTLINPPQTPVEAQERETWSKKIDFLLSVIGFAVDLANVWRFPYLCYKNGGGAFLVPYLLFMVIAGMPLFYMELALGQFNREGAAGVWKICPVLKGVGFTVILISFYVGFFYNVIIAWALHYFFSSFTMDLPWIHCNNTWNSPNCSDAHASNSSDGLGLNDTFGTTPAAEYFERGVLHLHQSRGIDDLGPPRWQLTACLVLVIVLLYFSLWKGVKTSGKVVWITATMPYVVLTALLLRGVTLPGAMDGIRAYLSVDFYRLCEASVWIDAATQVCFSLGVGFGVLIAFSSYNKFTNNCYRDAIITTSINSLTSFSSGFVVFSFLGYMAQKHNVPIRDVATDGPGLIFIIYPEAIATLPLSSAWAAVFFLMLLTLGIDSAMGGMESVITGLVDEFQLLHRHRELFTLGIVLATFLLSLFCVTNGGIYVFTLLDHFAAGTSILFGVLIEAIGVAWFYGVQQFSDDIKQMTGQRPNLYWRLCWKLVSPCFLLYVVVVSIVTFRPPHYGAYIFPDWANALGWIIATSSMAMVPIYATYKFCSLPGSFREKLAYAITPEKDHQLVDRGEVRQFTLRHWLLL
T3 sequence (P31652 whole entry): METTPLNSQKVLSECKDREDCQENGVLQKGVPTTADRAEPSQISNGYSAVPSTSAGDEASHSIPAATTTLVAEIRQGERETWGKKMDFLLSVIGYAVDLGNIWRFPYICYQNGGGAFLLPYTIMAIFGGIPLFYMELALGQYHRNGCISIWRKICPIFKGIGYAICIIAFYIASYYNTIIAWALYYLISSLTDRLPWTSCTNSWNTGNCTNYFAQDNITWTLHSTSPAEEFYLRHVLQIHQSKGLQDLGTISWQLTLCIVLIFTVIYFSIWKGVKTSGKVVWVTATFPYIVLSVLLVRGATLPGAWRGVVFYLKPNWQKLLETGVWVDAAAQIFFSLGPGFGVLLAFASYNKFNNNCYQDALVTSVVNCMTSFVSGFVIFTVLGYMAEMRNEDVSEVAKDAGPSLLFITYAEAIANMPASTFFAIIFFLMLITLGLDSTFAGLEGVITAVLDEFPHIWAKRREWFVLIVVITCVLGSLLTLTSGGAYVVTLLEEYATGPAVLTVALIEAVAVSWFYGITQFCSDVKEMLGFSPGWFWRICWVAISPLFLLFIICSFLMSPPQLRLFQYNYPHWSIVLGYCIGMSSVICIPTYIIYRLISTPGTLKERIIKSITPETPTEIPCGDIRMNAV

| Structure (SMILES) | Ki [1] [nM] | IC50 [2] [nM] | Ki [3] [nM] | 5-HT/DA potency ratio [3] | 5-HT/NE potency ratio [3] | transporter selectivity (in words) [4] | Ki [3, 5] [nM] |
| --- | --- | --- | --- | --- | --- | --- | --- |
| CCC(=O)[C@H]1[C@@H](c2ccc(C=C(C)C)cc2)C[C@@H]2CC[C@H]1N2 (relative stereo) [Example 6, 2.beta .-Propanoyl-3β-[4-(2-methylpropenyl)phenyl]-8-azabicyclo[3.2.1]octanem] | 1250 ± 124 | 96.3 ± 17.1 | 0.404 ± 0.1 | 240 | 3097 |  |  |
| C=C(C)c1ccc(C2CC3CCC(N3)C2C(=O)CC)cc1 (stereo not shown) [4-(1-methylethenyl)phenyl derivative] |  |  |  |  |  | most selective compound described in the previous case |  |
| C=C(CC)c1ccc([C@H]2C[C@@H]3CC[C@H]([C@H]2C(=O)CC)N3C)cc1 [Example 7, (R)-8-Methyl-2β-propanoyl-3β-[4-(1-ethylethenyl)phenyl]-8-azabicyclo[3.2.1]octanem] | 1140 ± 606 | 22.1 ± 7.76 | 1.13 ± 0.3 | 20 | 1000 |  |  |
| CCC(=O)[C@H]1[C@@H](c2ccc(/C=C(/C)I)cc2)C[C@@H]2CC[C@H]1N2 (relative stereo) [Example 13, (Z)-2β-Pr opanoyl-3β-[4-(2-iodopropenyl)phenyl]-8-azabicyclo[3.2.1]octane] | 66.7 ± 17.1 | 66.5 ± 11.1 | 0.131 ± 0.03 | 507 | 509 |  |  |
| C/C=C/c1ccc([C@H]2C[C@@H]3CC[C@H]([C@H]2C(=O)CC)N3C)cc1 [Example 9, (R)-(E )-8-Methyl-2β-propanoyl-3β-[4-(1-propenyl)phenyl]-8-azabicyclo[3.2.1]octane] | 292 ± 71.7 | 1.59 ± 0.66 | 1.17 ± 0.46 | 1.5 | 250 |  |  |
| CCC(=O)[C@H]1[C@@H](c2ccc(-c3cccn3C)cc2)C[C@@H]2CC[C@H]1N2C (relative stereo) [Example 3, 8-Methyl-2β-propanoyl-3β-[4-(N-methyl-2-pyrrolyl)phenyl]-8-azabicyclo[3,2,1]octane] | > 10000 | 703 ± 222 |  | 24 | > 15,000 |  | 25.6 ± 4.1 |
| CCC(=O)[C@H]1[C@@H](c2ccc(C=C(C)C)cc2)C[C@@H]2CC[C@H]1N2C (relative stereo) [Example 5, 8-Methyl-2β-Propanoyl-3β-[4-(2-methylpropenyl)phenyl]-8-azabicyclo[3.2.1]octane] | 4130 ± 785 | 51.3 ± 15.5 |  | 6 | 448 |  | 9.22 ± 2.4 |
| C=C(C)c1ccc([C@H]2C[C@@H]3CC[C@H]([C@H]2C(=O)CC)N3C)cc1 (relative stereo) [Example 1] | 794 ± 110 | 7.2 ± 2.1 | 0.82 ± 0.38 | 8.8 | 970 |  |  |
| C=C(C)c1ccc([C@H]2C[C@@H]3CC[C@@H](N3)[C@H]2C(=O)CC)cc1 (relative stereo) [Example 2] | 94 ± 18 | 16 ± 4.9 | 0.11 ± 0.02 | 150 | 850 |  |  |
| CCC(=O)[C@H]1[C@@H](c2ccc(/C=C(\C)I)cc2)C[C@@H]2CC[C@H]1N2 (relative stereo) [Example 12, (E)-2β-Propanoyl-3. beta.-[4-(2-iodopropenyl)phenyl]-8-azabicyclo[3.2.1]octane] | 365 ± 118 | 401 ± 73 | 0.566 ± 0.027 | 708 | 645 |  |  |
| C=C(CC)c1ccc(C2CC3CCC(N3)C2C(=O)CC)cc1 [Example 8, (R)-2. beta.-Propanoyl-3β-[4-(1-ethylethenyl)phenyl]-8-azabicyclo[3.2.1]octane] | 347 ± 54.8 | 37.9 ± 12.9 | 0.194 ± 0.1 | 200 | 1790 |  |  |
| CCC(=O)[C@H]1[C@@H](c2ccc(-c3cccn3C)cc2)C[C@@H]2CC[C@H]1N2 (relative stereo) [Example 4, 2.beta .-Propanoyl-3β-[4-(N-methyl-2-pyrrolyl)phenyl]-8-azabicyclo[3.2.1]octane] | > 10000 | 614 ± 98 |  | 590 | > 25,000 |  | 1.05 ± 0.2 |
| CC=Cc1ccc(C2CC3CCC(N3)C2C(=O)CC)cc1 [Example 10, (R)-(E )-2β-Propanoyl-3β-[4-(1-propenyl)phenyl]-8-azabicyclo[3.2.1]octane] | 25.6 ± 9.6 | 1.94 ± 0.96 | 0.236 | 8 | 108 |  |  |
| CCC(=O)C1C(c2ccc3ccccc3c2)CC2CCC1N2C (stereo not shown) [2-naphthyl derivative] |  |  |  |  |  | unselective |  |
| CCC(=O)[C@H]1[C@@H](c2ccc(/C=C/I)cc2)C[C@@H]2CC[C@H]1N2 (relative stereo) [Example 11, (E)-2β-Propanoyl-3β-[4-(2-iodoethenyl)phenyl]-8-azab icyclo[3.2.1]octane] | 49.7 ± 10.6 | 51.3 ± 5.6 | 0.619 ± 0.078 | 83 | 80 |  |  |
